In patent publication US4251628A, “Substrates for angiotensin converting enzyme” (priority 1978, dated 1981):
Like-named read-outs stand apart in the source and are kept apart here. Ends that are not written are not given here. Peptide text beside a SMILES is read from it.

Columns and labels:
[1] = target: T1, serum angiotensin converting enzyme (ACE) (Homo sapiens, UniProt P12821); assay: biochemical; assay type: biochemical; settings: for ACE Activity as % of control: 60 min; for Mode of inhibition (in words): ACE catalyzed hydrolysis of ^3H-HipGlyGly
T1 construct: the activity observed with the present assay method in human serum is identical to ACE; from tissue; host or cells: human serum (unfractionated)
Description: The reaction buffer contains 0.05 M Hepes, 0.1 M sodium chloride and 0.6 M sodium sulphate at pH 8.0. (Pepes is N-2-Hydroxyethyl piperazine N'-2-ethane sulfonic acid.) The substrate, ^3 H-HipGlyGly was dissolved in reaction buffer at a concentration of 16 mM and a specific radioactivity of about 0.15 millicuries/millimole. Serum was prepared from fresh whole blood by standard techniques. […] Hemolyzed samples were not used in the assay. […] For the assay, 50 μl. of serum was diluted with 200 μl. of reaction buffer. All the reactions were carried out in glass tubes due to the potentially destructive action of ethyl acetate on plastic.
(§1) The reaction mixture was composed of 50 μl. of diluted serum, an appropriate amount of substrate solution depending on the final substrate concentration desired, and reaction buffer sufficient to give a total reaction volume of 100 μl. All reaction tubes were incubated for 60 minutes at 37° C. Reactions were terminated by the addition of 1.0 ml. of 0.1 N hydrochloric acid. The reaction mixture was then extracted with 1.0 ml. ethyl acetate, by rotary agitation for 4-5 seconds. The phases were separted by centrifugation at 1000×G for ten minutes. A 0.5 ml. sample of the ethyl acetate (upper) layer was removed and tranferred to a scintillation vial containing 10 ml. scintillation fluid. (Riafluor, Trademark, New England Nuclear Corp., Boston, Mass.)
A control determination of background radioactivity was made using 50 μl. of reaction buffer instead of diluted serum in the reaction mixture. The purpose of this control was to determine the number of total counts attributable to background radiation, non-specific release of hippuric acid and the presence of unreacted substrate in the ethyl acetate phase. […] Total radioactivity was determined by counting an amount of substrate equal to that used in the reaction mixture directly in the scintillation counter.
(§2) Reaction velocity, in terms of nanomoles of product formed per minute per ml of serum was calculated according to the following formula: [formula] In this formula, "nmoles" means nanomoles, "min" means minutes, "ml" means milliliters and "cpm" means radioactivity counts per minute. The factor of 2 is a correction for the aliquot size.
In this series of reactions, the procedure described in Ex. 1 was followed except that the substrate concentration was 8 mM throughout and specific inhibitor substances were added at the indicated final concentration. Bradykinin, angiotensin I, BPP5α and EDTA have been described hereinabove. BPP9α (SQ20881) is a nonapeptide from snake venom having the sequence <GluTryProArgProGlnIleProPro.
*Standard assay conditions as described in Example 1 were used.
**ΔCPM = (CPM of compound CPM of Blank)

[2] = target: T2, angiotensin converting enzyme (ACE) (Homo sapiens, UniProt P12821); assay: Hydrolysis of ^3H-BenzoylProPheArg by normal human serum: effect of various compounds; assay type: biochemical; settings: ^3H-BenzoylProPheArg substrate
T2 construct: Serum was prepared from fresh whole blood by standard techniques; from tissue; host or cells: serum (unfractionated)
Description: Hydrolysis of […] ^3 H-BenzoylProPheArg using the standard reaction procedure of Example 1 with normal human serum as the ACE source was measured in the absence and in the presence of competing substrates and an inhibitor.

[3] = Extraction (partition) into ethyl acetate; assay type: physicochemical
Description: (§3) Reaction conditions optimal for carrying out an ACE catalyzed hydrolysis of a substrate of the present invention are the same as have been previously described for substrates known in the prior art. Detailed studies of optimal conditions using HipGlyGly as substrate have been reported by Dorer, et al. The pH optimum is approximately 8.0 although greater than 50% maximal activity is obtained in the pH range 7.0-9.0, in the presence of 1 M NaCl. […] The relationship between the chloride requirement and the ionic strength requirement has not been fully characterized. […] Phosphate is inhibitory. Hepes, bicine and barbital buffers are suitable for use but Hepes is preferred because it provides maximum activity. Preferred conditions of buffer composition, ionic strength, pH and temperature are described in Example 1. […] The pH range for usable enzyme activity is from pH 6.5 to pH 8.7, with a broad plateau of maximal activity ranging from pH 7.2 to pH 8.5. Optimal substrate concentration depends upon the apparent Km, for the substrate compared with the Km's of possible competing substances in the sample. A substrate having a relatively low Km, such as ^3 H-benzoylProPheArg (Km 2×10^-4 M) could be suitably used at a concentration less than its Km. A substrate having a higher Km might better be used at a concentration greater than its Km. […] Because its Km is the lowest of any of the substrates of the present invention, ^3 H-benzoylProPheArg is the most preferred substrate for assays where ACE activity is low and maximum sensitivity is desired. In addition to being less sensitive to competitive inhibition, assays carried out with this substrate are potentially able to measure lower levels of ACE than the other substrates disclosed herein. Additionally, its partition behavior in an aprotic organic solvent is extremely favorable: only about 3% entered ethyl acetate in a preliminary extraction experiment. The remnant product Benzoylproline was about 90% extracted.
The remnant reaction product may be extracted from the reaction mixture by an aprotic organic solvent which affords a reasonably quantitative separation of product from substrate. The use of solvents which may interfere with the counting process is to be avoided. Ethyl acetate is preferred. Approximately 91% of ^3 H-Hippuric acid is extracted into ethyl acetate. Extraction may be carried out by any suitable means familiar to those skilled in the art, such as shaking, agitating, mixing and the like. Separation of the phases is conveniently accomplished by centrifugation. Centrifugation at 1000×G for ten minutes is preferred, either at room temperature or in a refrigerated centrifuge. In some cases, an emulsion will form which can be separated by a longer centrifugation step.
A control determination of background radioactivity was made using 50 μl. of reaction buffer instead of diluted serum in the reaction mixture. The purpose of this control was to determine the number of total counts attributable to background radiation, non-specific release of hippuric acid and the presence of unreacted substrate in the ethyl acetate phase. Less than 7% of the ^3 H-HipGly Gly entered the organic phase. Total radioactivity was determined by counting an amount of substrate equal to that used in the reaction mixture directly in the scintillation counter. […]

[4] = test system: angiotensin converting enzyme (ACE); settings: buffer component / additive; cited from earlier work
[5] = target: T2, angiotensin converting enzyme (ACE); assay: ACE assay: hydrolysis of ^3H-HipGlyGly by human serum, Lineweaver-Burke Km; assay type: biochemical; settings: when about 20% or more of the substrate has been hydrolyzed
Description: The following sample illustrates the preferred assay method, the sensitivity of the assay and the Km for ^3 H-HipGlyGly. The reaction buffer contains 0.05 M Hepes, 0.1 M sodium chloride and 0.6 M sodium sulphate at pH 8.0. (Pepes is N-2-Hydroxyethyl piperazine N'-2-ethane sulfonic acid.) The substrate, ^3 H-HipGlyGly was dissolved in reaction buffer at a concentration of 16 mM and a specific radioactivity of about 0.15 millicuries/millimole. Serum was prepared from fresh whole blood by standard techniques. […] Hemolyzed samples were not used in the assay. Serum samples could be stored at least for one week at 2° C. to 8° C. or for at least 8 weeks frozen, prior to assaying. For the assay, 50 μl. of serum was diluted with 200 μl. of reaction buffer. All the reactions were carried out in glass tubes due to the potentially destructive action of ethyl acetate on plastic.
as §1
A control determination of background radioactivity was made using 50 μl. of reaction buffer instead of diluted serum in the reaction mixture. The purpose of this control was to determine the number of total counts attributable to background radiation, non-specific release of hippuric acid and the presence of unreacted substrate in the ethyl acetate phase. Less than 7% of the ^3 H-HipGly Gly entered the organic phase. Total radioactivity was determined by counting an amount of substrate equal to that used in the reaction mixture directly in the scintillation counter.
as §2, with “size. In the case where a significant fraction of substrate has been hydrolyzed, and the substrate in one which is more soluble in the organic phase, as for example, ^125 I-HPPGlyGlyGly, a modified formula is used to take account of the decreasing amount of substrate as the reaction progresses: [formula]” for “size.”
Reciprocal values of initial substrate concentration and reaction velocity were calculated and graphed according to the method of Lineweaver and Burke, as shown in FIG. 1. A straight line was obtained, which intercepted the ordinate at a value equal to the reciprocal of the maximum velocity of the enzyme reaction and intercepted the abcissa at a value equal to the negative reciprocal of the apparent Michaelis constant. […] It can be seen that reaction velocities as low as 12 nanomoles of substrate hydrolyzed per minute per ml. of serum can readily be measured.

[6] = test system: angiotensin converting enzyme (ACE); assay: ACE-catalyzed hydrolysis: Km, pH, chloride and buffer dependence; assay type: biochemical
Description: as §3

[7] = 1 h, read-out: ACE Activity as % of control

T2 sequence (P12821 30-1232 limits assumed): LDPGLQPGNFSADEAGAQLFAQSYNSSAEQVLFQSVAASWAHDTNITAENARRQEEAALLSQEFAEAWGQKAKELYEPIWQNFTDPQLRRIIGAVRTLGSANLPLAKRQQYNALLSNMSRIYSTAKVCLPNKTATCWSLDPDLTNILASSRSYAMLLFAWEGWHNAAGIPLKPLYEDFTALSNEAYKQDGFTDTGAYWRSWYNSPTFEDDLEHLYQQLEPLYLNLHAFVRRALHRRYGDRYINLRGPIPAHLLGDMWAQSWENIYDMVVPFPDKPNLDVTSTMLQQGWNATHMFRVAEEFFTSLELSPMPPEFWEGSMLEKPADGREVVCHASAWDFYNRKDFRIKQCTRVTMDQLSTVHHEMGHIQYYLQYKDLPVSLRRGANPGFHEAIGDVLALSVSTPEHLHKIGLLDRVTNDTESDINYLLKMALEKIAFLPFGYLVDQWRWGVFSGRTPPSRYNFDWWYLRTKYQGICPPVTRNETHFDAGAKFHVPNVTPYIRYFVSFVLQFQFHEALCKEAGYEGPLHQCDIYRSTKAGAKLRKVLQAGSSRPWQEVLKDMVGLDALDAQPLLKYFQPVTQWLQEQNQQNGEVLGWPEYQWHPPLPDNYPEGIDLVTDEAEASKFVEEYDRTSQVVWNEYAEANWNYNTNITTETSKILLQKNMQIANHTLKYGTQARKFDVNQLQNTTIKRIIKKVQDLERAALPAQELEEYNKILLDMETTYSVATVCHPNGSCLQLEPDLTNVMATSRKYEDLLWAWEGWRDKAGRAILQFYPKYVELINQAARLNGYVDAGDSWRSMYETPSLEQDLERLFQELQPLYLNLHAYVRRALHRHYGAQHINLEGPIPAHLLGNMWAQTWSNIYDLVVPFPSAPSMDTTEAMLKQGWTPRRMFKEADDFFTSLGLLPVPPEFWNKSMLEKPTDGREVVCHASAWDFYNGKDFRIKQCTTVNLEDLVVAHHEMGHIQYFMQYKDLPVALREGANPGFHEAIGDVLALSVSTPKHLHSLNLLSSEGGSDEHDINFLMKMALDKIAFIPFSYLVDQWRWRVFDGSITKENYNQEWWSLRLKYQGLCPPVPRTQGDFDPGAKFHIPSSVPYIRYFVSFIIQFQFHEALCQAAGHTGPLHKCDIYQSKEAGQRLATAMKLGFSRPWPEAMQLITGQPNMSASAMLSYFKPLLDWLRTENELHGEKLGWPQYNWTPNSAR
T1 sequence (P12821 30-1232 limits assumed): as above

CC[C@H](C)[C@H](NC(=O)[C@H](CCC(N)=O)NC(=O)[C@@H]1CCCN1C(=O)[C@H](CCCNC(=N)N)NC(=O)[C@@H]1CCCN1C(=O)[C@H](Cc1c[nH]c2ccccc12)NC(=O)[C@@H]1CCC(=O)N1)C(=O)N1CCC[C@H]1C(=O)N1CCC[C@H]1C(=O)O [BPP9α (SQ20881)]
Δ CPM (counts per minute) ([1]; 2.8 × 10^-9 M, substrate 8 mM): 2200 counts per minute | Δ CPM (counts per minute) ([1]; 9 × 10^-8 M, substrate 8 mM): 1410 counts per minute | remaining activity at 0.0028 µM [1, 7]: 58% | remaining activity at 0.09 µM [1, 7]: 37% | remaining activity at 33 µM ([2]; 3.3 × 10^-5 M, read-out: ACE Activity As % of Control): 28%

O=C(O)[C@@H]1CCCN1C(=O)c1ccccc1 [Benzoylproline]
Fraction extracted into ethyl acetate [3]: about 90%

O=C(O)CN(CCN(CC(=O)O)CC(=O)O)CC(=O)O [EDTA, Ethylene diamine tetraacetic acid]
Δ CPM (counts per minute) [1]: 1178 | remaining activity at 900 µM [1, 7]: 31% | remaining activity at 1000 µM ([2]; 1 × 10^-3 M, read-out: ACE Activity As % of Control): 23% | Inhibition of ACE (in words) [4]: potent inhibitor of ACE

NCC(=O)NCC(=O)O [GlyGly] (H-Gly-Gly-OH)
Product inhibition (in words) [5]: Product inhibition has been observed

[3H]c1ccc(C(=O)N2CCC[C@H]2C(=O)N[C@@H](Cc2ccccc2)C(=O)N[C@@H](CCCNC(=N)N)C(=O)O)cc1 [^3 H-BenzoylProPheArg, ^3 H-benzoylprolylphenylalanylarginine]
Fraction extracted into ethyl acetate [3]: about 3% | Km ([6]; ^3H-benzoylProPheArg as substrate): 200 µM | Chloride / ionic strength requirement of the ACE-catalyzed hydrolysis ([6]; by substrate): chloride ions and high total ionic strength do not greatly affect the rate

[3H]c1ccc(C(=O)NCC(=O)O)cc1 [^3 H-Hippuric acid, Hippuric acid (Benzoyl glycine)]
Fraction extracted into ethyl acetate [3]: Approximately 91%

Angiotensin I: decapeptide angiotensin I, having the sequence AspArgValTyrIleHisProPheHisLeu (DRVYIHPFHL; printed: AspArgValTyrIleHisProPheHisLeu)
Δ CPM (counts per minute) ([1]; 4.5 × 10^-5 M, substrate 8 mM): 1278 counts per minute | ACE Activity as % of control ([1]; 4.5 × 10^-5 M, substrate 8 mM, 45 µM): 34 % of control | Δ CPM (counts per minute) ([1]; 9 × 10^-6 M, substrate 8 mM): 2557 counts per minute | ACE Activity as % of control ([1]; 9 × 10^-6 M, substrate 8 mM, 9 µM): 67 % of control | Δ CPM (counts per minute) ([1]; 9 × 10^-7 M, substrate 8 mM): 3057 counts per minute | ACE Activity as % of control ([1]; 9 × 10^-7 M, substrate 8 mM, 0.9 µM): 81 % of control | Mode of inhibition (in words) [1]: competitive inhibitors | ACE Activity As % of Control ([2]; 7.1 × 10^-5 M, 71 µM): 27 % of Control

Phosphate
Inhibition of ACE (in words) [4]: inhibitory

RPPGFSPFR [Bradykinin]
Δ CPM (counts per minute) ([1]; 2.7 × 10^-5 M, substrate 8 mM): 1553 counts per minute | Δ CPM (counts per minute) ([1]; 2.7 × 10^-6 M, substrate 8 mM): 3165 counts per minute | Δ CPM (counts per minute) ([1]; 2.7 × 10^-7 M, substrate 8 mM): 3267 counts per minute | remaining activity at 0.27 µM [1, 7]: 86% | remaining activity at 2.7 µM [1, 7]: 83% | remaining activity at 27 µM [1, 7]: 41% | Mode of inhibition (in words) [1]: competitive inhibitors | remaining activity at 82 µM ([2]; 8.2 × 10^-5 M, read-out: ACE Activity As % of Control): 21%
